Source: patent publication EP1588698A2, “A process for the production and screening of materials for use in pharmaceutical aerosol formulations” (Thompson, James Anthony, priority 2004, dated 2005)

Columns and labels:
Type in all cases: physicochemical
[1] = Screening of salt derivative solubility in ethanol co-solvent
From the text: Solubility, of a drug salt derivative, to an appreciable extent, in solvents miscible with the propellant(s) provides a simple yet robust screening method.
The co-solvent used to screen derivative solubility and formulation approach was ethanol. […] A comprehensive list can be taken from texts such as the handbook of pharmaceutical excipients. Ethanol and water mixtures may be utilised. For solution aerosols a single phase is required when in the final formulation, but equally a suspension or emulsion may results and be utilised. As the model bronchodilator was a basic compound acids requisite for salt formation (from pKa values) were selected. […] The solvent necessary to facilitate dissolution is assumed to be of sufficient dielectric constant and an ideal solvent, although skilled practitioners will endeavor to try a range of solvents as formulation science is empirical. Other examples of suitable acids are acetate, benzenesulphonate, mesylate etc, and can be sought from any suitable text: Martindale 2005. […] Preferentially precipitated or solvated species may result from careful selection of reagents and forms of the active described. Preferentially precipitated or solvated compounds can be isolated either in bulk or in-situ for use.
Two non-limiting examples of use of the manufacture/ screening method are described below.

[2] = Cascade impactor particle size and deposition under controlled temperature and relative humidity
From the text: Formulations of salt derivatives whether prepared by the following method but any suitable method can be utilise. Plastic coated glass pMDI bottles (St Gobain, France) were weighed on a balance and tared after first undergoing a rinse with clean and dry compressed air. Drug was weighed accurately by difference in order to give an equivalent of 100mcg freebase as related to molecular mass of the salt and the same procedure repeated for absolute ethanol (Fisher scientific). A continuous […] on (Bespak, Kings Lynn, UK), according to manufacturers specifications and the bottle then sonicated (Decon FS 3006) for several minutes to induce complete dissolution of the drug. The bottle was then dried and once again tared on the balance. HFA 134(a) was subsequently charged through the valve using a Pamasol 2002 hand […] (DH Industries, Laindon, Essex, UK). The final formulation preparation was sonicated for a further several minutes for completeness. Formulations were then stored at specified temperatures and assessed periodically. All solutions were prepared in duplicate. 10% w/w ethanol : 90% w/w HFA 134(a) formulations were prepared. This is in no way intended to limit the extent of the formulations. Solutions were tested for particle size using a cascade impactor, which to that practitioner skilled is standardised method for determining particle size distributions, under conditions of thermal and environmental control. Figures 9-12 illustrate the invention from particle size results. […] It is therefore an embodiment to use derivatives to utilise derivatives not known to optimise deposition.

[3] = Stability of ethanol / HFA 134(a) pMDI formulations in plastic coated glass bottles; conditions: ethanol co-solvent in HFA 134(a); equivalent to 100mcg of free base per actuation
From the text: The solid compound is then isolated by a suitable method. Figures 3 and 4 indicates the solubility profiles of the respective salts synthesised. […] The mass of derivative was formulated at a level to give an equivalent to 100mcg of free base per actuation from the metering valve. Results from the formulations are depicted in figure 5 for the maleate salt 6 for the oleate salt and 7 to illustrate the precipitation technique by 7 controlled precipitation by the use of a second antisolvent: water on formulations of salbutamol maleate. […] Skilled artisans may endeavour to include surfactants or further co-solvents to enhance solubility. Such excipients may include but not be limited to conventional surfactants: Brij's Tween's lecithins polyvinylpyrollidone and those described in suitable pharmaceutical excipients handbooks. Figures 5, 6 (maleate salt side and plan views) and 7 (oleate salt arrows indicate crystals) illustrate 134(a) as an antisolvent as the drug […] from solution. The particle size of each drug is different, which leads to an embodiment of invention: use of derivative, co-solvent level, excipients level and antisolvent concentrations to precipitate actives to a desired particle size by careful moderation of the components. […] Formulations were then stored at specified temperatures and assessed periodically. […]

[4] = Morphology of particles deposited from pMDI (SEM, impactor plate); conditions: lab ambient, without a liquid air interface

Substance	solubility in ethanol [1]	behaviour of the salt in ethanol solution (stable or precipitates) ([1]; ethanol reaction solution)	%Deposited at Location ACTUATOR ([2]; HT/HRH)	%Deposited at Location FPF ([2]; HT/HRH)	%Deposited at Location THROAT ([2]; HT/HRH)	%Deposited at Location ACTUATOR ([2]; HT/LRH)	%Deposited at Location FPF ([2]; HT/LRH)	%Deposited at Location THROAT ([2]; HT/LRH)	%Deposited at Location ACTUATOR ([2]; LT/HRH)	%Deposited at Location FPF ([2]; LT/HRH)	%Deposited at Location THROAT ([2]; LT/HRH)	%Deposited at Location ACTUATOR ([2]; LT/LRH)	%Deposited at Location FPF ([2]; LT/LRH)	%Deposited at Location THROAT ([2]; LT/LRH)	co-solvent level at which stable solution formulations achievable [3]	particle morphology on deposition [4]
Salbutamol cis-butenedioate (Maleate)	ethanol soluble	stable as a solution in ethanol, even at ultra low temperatures	27.35%	57.42%	11.78%	22.00%	63.24%	12.74%	16.33%	52.88%	25.96%	8.97%	42.76%	44.24%	15 % w/w	
Salbutamol cis-octadecenoate (Oleate)			20.37%	67.00%	7.52%	16.74%	67.87%	7.70%	19.54%	67.43%	8.82%	6.86%	72.33%	17.29%	30 % w/w	spread as a surfactant
salbutamol fumarate	NB the Fumarate was insoluble in ethanol even though its only difference to the maleate was the trans arrangement of the carboxylic acid groups.															
